According to PubChem BioAssay AID588588 (Sanford-Burnham Center for Chemical Genomics, 2011):
Where “and” joins values, the source holds several entries; their conditions need not be identical. Equal values may be shown once. Calls of active or inactive are those of the source. No rule for the calls is given here.

These compounds were tested against glucose-6-phosphate dehydrogenase-6-phosphogluconolactonase (Plasmodium falciparum 3D7) (assay: PfG6PD enzyme inhibitors, direct NADPH readout, SAR follow-up, orthogonal assay, biochemical, end-point NADPH detection (AID 588588)). Details: recombinant PfG6PD-6PGL.

Compound	IC50
COc1cccc(C(=O)Nc2nnc(S(=O)(=O)N3CCCCCC3)s2)c1	> 80 µM (inactive)
CCN(CC)CCNC(=O)c1ccc2c(c1)N(Cc1cc(C)ccc1C)C(=O)c1ccccc1S2	> 80 µM (inactive)
O=C(Nc1nnc(S(=O)(=O)N2CCCCCC2)s1)c1cccc(F)c1	> 80 µM (inactive)
CCN1CCCC1CNC(=O)c1ccc2c(c1)NC(=O)CO2 (configuration not stated)	> 80 µM (inactive)
CCN1CCCC1CNC(=O)c1ccc2c(c1)NC(=O)/C(=C\c1ccccc1F)S2 (configuration not stated)	> 80 µM (inactive)
O=C(Nc1nnc(S(=O)(=O)N2CCOCC2)s1)c1cccc(F)c1	> 80 µM (inactive)
COc1ccc(/C=C2/Sc3ccc(C(=O)NCCN4CCCCCC4)cc3NC2=O)cc1	> 80 µM (inactive)
O=C1Nc2cc(C(=O)NCCN3CCOCC3)ccc2S/C1=C\c1ccccc1F	> 80 µM (inactive)
CCN(CC)CCNC(=O)c1ccc2c(c1)NC(=O)CO2	> 80 µM (inactive)
O=C1Nc2cc(C(=O)NCCN3CCCCCC3)ccc2S/C1=C/c1ccccc1Cl	> 80 µM (inactive)
CN(C)CCNC(=O)c1ccc2c(c1)NC(=O)/C(=C\c1ccccc1F)S2	> 80 µM (inactive)
Cc1ccc(C(=O)Nc2nnc(S(=O)(=O)N3c4ccccc4CC3C)s2)cc1 (configuration not stated)	> 80 µM (inactive)
CCN1CCCC1CNC(=O)c1ccc2c(c1)N(Cc1ccccc1Cl)C(=O)c1ccccc1S2 (configuration not stated)	> 80 µM (inactive)
CCN1CCCC1CNC(=O)c1ccc2c(c1)NC(=O)/C(=C/c1ccccc1OC)S2 (configuration not stated)	> 80 µM (inactive)
CCCN(CCC)CCNC(=O)c1ccc2c(c1)NC(=O)/C(=C/c1ccccc1)S2	> 80 µM (inactive)
CCN1CCCC1CNC(=O)c1ccc2c(c1)NC(=O)/C(=C\c1ccccc1Cl)S2 (configuration not stated)	> 80 µM (inactive)
O=C(NCCN1CCCC1)c1ccc2c(c1)NC(=O)c1ccccc1O2	> 80 µM (inactive)
Cc1ccccc1C(=O)Nc1nnc(S(=O)(=O)N2CCCCCC2)s1	> 80 µM (inactive)
O=C(NCCN1CCOCC1)c1ccc2c(c1)NC(=O)c1ccccc1O2	> 80 µM (inactive)
Cc1cccc(/C=C2/Sc3ccc(C(=O)NCCN4CCCC4)cc3NC2=O)c1	> 80 µM (inactive)
CCN(CC)CCNC(=O)c1ccc2c(c1)NC(=O)/C(=C\c1cccc(C)c1)S2	> 80 µM (inactive)
CCN1CCCC1CNC(=O)c1ccc2c(c1)NC(=O)c1ccccc1S2 (configuration not stated)	6.64 µM and 9.89 µM
COc1ccccc1C(=O)Nc1nnc(S(=O)(=O)N2CCCCCC2)s1	> 80 µM (inactive)

Compound	IC50
CN(C)CCNC(=O)c1ccc2c(c1)NC(=O)/C(=C\c1cccc(Cl)c1)S2	> 80 µM (inactive)
CCN1CCCC1CNC(=O)c1ccc2c(c1)NC(=O)/C(=C/c1ccccc1)S2 (configuration not stated)	> 80 µM (inactive)
COc1ccc(/C=C2/Sc3ccc(C(=O)NCCN4CCCC4)cc3NC2=O)cc1	> 80 µM (inactive)
CCN1CCCC1CNC(=O)c1ccc2c(c1)NC(=O)/C(=C/c1ccccc1C)S2 (configuration not stated)	> 80 µM (inactive)
CCN(CC)CCNC(=O)c1ccc2c(c1)NC(=O)c1ccccc1O2	> 80 µM (inactive)
CN(C)CCNC(=O)c1ccc2c(c1)NC(=O)CO2	> 80 µM (inactive)
CN(C)CCNC(=O)c1ccc2c(c1)NC(=O)c1ccccc1O2	> 80 µM (inactive)
CCN(CC)CCNC(=O)c1ccc2c(c1)N(Cc1ccc(C)cc1)C(=O)c1ccccc1S2	> 80 µM (inactive)
Cc1cccc(C(=O)Nc2nnc(S(=O)(=O)N3CCCCCC3)s2)c1	> 80 µM (inactive)
CCN(CC)CCNC(=O)c1ccc2c(c1)NC(=O)/C(=C\c1ccc(OC)c(OC)c1)S2	> 80 µM (inactive)
CN1CCN(C(=O)c2ccc3c(c2)NC(=O)/C(=C/c2ccccc2Cl)S3)CC1	> 80 µM (inactive)
O=C1Nc2cc(C(=O)NCCN3CCCC3)ccc2S/C1=C\c1ccccc1F	> 80 µM (inactive)
Cc1cccc(C(=O)Nc2nnc(S(=O)(=O)N3CCOCC3)s2)c1	> 80 µM (inactive)
CCN1CCCC1CNC(=O)c1ccc2c(c1)NC(=O)CS2 (configuration not stated)	> 80 µM (inactive)
CCCN(CCC)CCNC(=O)c1ccc2c(c1)NC(=O)/C(=C\c1ccc(C)cc1)S2	> 80 µM (inactive)
CCN1CCC[C@H]1CNC(=O)c1ccc2c(c1)NC(=O)/C(=C/c1ccccc1F)S2	> 80 µM (inactive)
O=C(Nc1nnc(S(=O)(=O)N2CCCCCC2)s1)c1ccco1	> 80 µM (inactive)
CCN(CC)CCNC(=O)c1ccc2c(c1)NC(=O)/C(=C/c1ccccc1)S2	> 80 µM (inactive)
CC1Cc2ccccc2N1S(=O)(=O)c1nnc(NC(=O)c2cccc(Br)c2)s1 (configuration not stated)	> 80 µM (inactive)
O=C1COc2ccc(C(=O)NCCN3CCCC3)cc2N1	> 80 µM (inactive)
O=C(Nc1nnc(S(=O)(=O)N2CCCCCC2)s1)c1cccc(Br)c1	> 80 µM (inactive)
Cc1cccc(C(=O)Nc2nnc(S(=O)(=O)N3c4ccccc4CC3C)s2)c1 (configuration not stated)	> 80 µM (inactive)
CCN1CCCC1CNC(=O)c1ccc2c(c1)NC(=O)c1ccccc1O2 (configuration not stated)	24.2 µM

Compound	IC50
O=C1COc2ccc(C(=O)NCCN3CCOCC3)cc2N1	> 80 µM (inactive)
CCN(CC)CCNC(=O)c1ccc2c(c1)N(Cc1ccccc1Cl)C(=O)c1ccccc1S2	> 80 µM (inactive)
CCN1CCC[C@@H]1CNC(=O)c1ccc2c(c1)NC(=O)/C(=C/c1ccccc1F)S2	> 80 µM (inactive)
CCC(C)N(CCNC(=O)c1ccc2c(c1)NC(=O)c1ccccc1S2)C1CCCCC1 (configuration not stated)	6.22 µM
CCN(CCNC(=O)c1ccc2c(c1)N(Cc1cc(C)ccc1C)C(=O)c1ccccc1S2)c1ccccc1	> 80 µM (inactive)
Cc1ccc(C(=O)Nc2nnc(S(=O)(=O)N3CCCCCC3)s2)cc1	> 80 µM (inactive)
O=C(Nc1nnc(S(=O)(=O)N2CCCCCC2)s1)c1ccc(F)cc1	> 80 µM (inactive)
CC1Cc2ccccc2N1S(=O)(=O)c1nnc(NC(=O)c2cccc(F)c2)s1 (configuration not stated)	> 80 µM (inactive)
COc1ccc(C(=O)Nc2nnc(S(=O)(=O)N3CCCCCC3)s2)cc1OC	> 80 µM (inactive)
O=C(Nc1nnc(S(=O)(=O)N2CCCCCC2)s1)c1cccc(Cl)c1	> 80 µM (inactive)
CCN(CC)CCNC(=O)c1ccc2c(c1)NC(=O)/C(=C\c1ccccc1Cl)S2	> 80 µM (inactive)
CN(C)CCNC(=O)c1ccc2c(c1)NC(=O)/C(=C/c1ccccc1F)S2	> 80 µM (inactive)
CCN1CCCC1CNC(=O)c1ccc2c(c1)N(Cc1ccc(C(F)(F)F)cc1)C(=O)c1ccccc1S2 (configuration not stated)	> 80 µM (inactive)
O=C1Nc2cc(C(=O)NCCN3CCCCC3)ccc2S/C1=C\c1ccccc1F	> 80 µM (inactive)
O=C1Nc2cc(C(=O)NCCN3CCCC3)ccc2S/C1=C/c1ccccc1Cl	> 80 µM (inactive)
O=C1Nc2cc(C(=O)NCCN3CCCCCC3)ccc2S/C1=C/c1ccccc1F	> 80 µM (inactive)
CCN(CCNC(=O)c1ccc2c(c1)NC(=O)c1ccccc1S2)c1ccccc1	> 80 µM (inactive)
Cc1ccc(CN2C(=O)c3ccccc3Sc3ccc(C(=O)NCCN(C)C)cc32)cc1	> 80 µM (inactive)
Cc1cccc(N2CCN(CCNC(=O)c3ccc4c(c3)NC(=O)c3ccccc3S4)CC2)c1C	> 80 µM (inactive)
Cc1cccc(C(=O)Nc2nnc(S(=O)(=O)N3CCCc4ccccc43)s2)c1	> 80 µM (inactive)
O=C(NCCN1CCCC1)c1ccc2c(c1)NC(=O)c1ccccc1S2	> 80 µM (inactive)
